Consider seven compounds from PubChem BioAssay (NCI).

Test systems include NCI-H23 lung; MDA-MB-435; SK-MEL-5 melanoma; OVCAR-4 ovarian; SNB-19 CNS; SW-620 colon; SN12C renal; M14 melanoma; OVCAR-3 ovarian; NCI-H522 lung; HS 578T breast; BT-549 breast; HCT-116 colon; NCI-H460 lung; SR leukemia; IGROV1 ovarian; MDA-MB-231 breast; UACC-257 melanoma; U251 CNS; HCC-2998 colon.
Common to all, as to test: NCI tumour cell line growth inhibition, 48 h

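Grown in 96-well plates, cells were treated for 48 hours with each compound at five concentrations. Insufficient inhibition: endpoint recorded as highest concentration tested. Definition used: TGI = concentration required for complete inhibition of growth.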

As to `CN1CCc2c(sc3ncn(Nc4ccc(F)cc4)c(=N)c23)C1`, the TGI with NCI-H23 lung, in the test on MDA-MB-435, in the test on SK-MEL-5 melanoma, in the test on OVCAR-4 ovarian, in the test on SNB-19 CNS and with SW-620 colon was greater than 100 µM throughout. Also, the TGI in the test with SN12C renal, in the test with M14 melanoma, in the test on OVCAR-3 ovarian, in the test with NCI-H522 lung, in the test on HS 578T breast and in the test with BT-549 breast was greater than 100 µM in each case. Further, the TGI in the test with HCT-116 colon, in the test on NCI-H460 lung, in the test with SR leukemia, in the test with IGROV1 ovarian, in the test with MDA-MB-231 breast and with UACC-257 melanoma was greater than 100 µM throughout. This compound showed a TGI with U251 CNS greater than 100 µM.

For `CC(=O)OCC1OC(O[C@H]2C=C[C@@H](C(=O)OCc3ccccc3)n3c(=O)n(-c4ccccc4)c(=O)n32)C(OC(C)=O)C(OC(C)=O)C1OC(C)=O` (stereo partly drawn), the TGI with NCI-H23 lung worked out at 9.02 µM; in the test on MDA-MB-435, 4.45 µM; with SK-MEL-5 melanoma, 5.66 µM; with OVCAR-4 ovarian it was 6.89 µM; with SNB-19 CNS, 30.1 µM; with SW-620 colon it was 17 µM. In addition, the TGI in the test with HCC-2998 colon amounted to 3.22 µM; with SN12C renal, 3.88 µM; in the test with M14 melanoma, 2.95 µM; in the test with OVCAR-3 ovarian, 3.18 µM; in the test on NCI-H522 lung it was 2.83 µM; in the test on HS 578T breast, 4.55 µM. Further, the TGI with BT-549 breast turned out to be 3.29 µM; in the test with NCI-H460 lung, 3.05 µM; with SR leukemia, 5.92 µM; with IGROV1 ovarian, 6.13 µM; with MDA-MB-231 breast, 4.12 µM; with UACC-257 melanoma it was 3.73 µM. Besides, the TGI with U251 CNS came to 4.81 µM.

Regarding `C/C(=N\O)c1cccc(Nc2c3ccccc3nc3occc23)c1`, the TGI in the test with NCI-H23 lung is 49.4 µM; in the test on MDA-MB-435, 5.73 µM; in the test on SK-MEL-5 melanoma, greater than 100 µM; with OVCAR-4 ovarian, 9.59 µM; in the test on SNB-19 CNS, greater than 100 µM; in the test with HCC-2998 colon, 52.4 µM. The TGI in the test with SN12C renal was greater than 100 µM; with M14 melanoma, greater than 100 µM; with OVCAR-3 ovarian, 80.1 µM; in the test with NCI-H522 lung, 4.83 µM; in the test on HS 578T breast, 55.3 µM; with BT-549 breast, 24.1 µM. The TGI is 18.8 µM with HCT-116 colon; greater than 100 µM with NCI-H460 lung; greater than 100 µM in the test on SR leukemia; 13.2 µM in the test on IGROV1 ovarian; greater than 100 µM in the test with MDA-MB-231 breast; greater than 100 µM in the test on UACC-257 melanoma. This compound showed a TGI in the test with U251 CNS greater than 100 µM.

With `COC(=O)[C@H](Cc1ccccc1)NC(=O)N(CCNC(=O)OC(C)(C)C)c1ccccc1`, the TGI in the test on NCI-H23 lung, in the test on MDA-MB-435, in the test on SK-MEL-5 melanoma, with OVCAR-4 ovarian, in the test with SNB-19 CNS and with SW-620 colon was greater than 100 µM throughout. For the same compound, the TGI with HCC-2998 colon, in the test with SN12C renal, in the test with M14 melanoma, in the test with OVCAR-3 ovarian, in the test on NCI-H522 lung and in the test with HS 578T breast was greater than 100 µM each time. The TGI with BT-549 breast, in the test with HCT-116 colon, in the test on NCI-H460 lung, with SR leukemia, in the test with IGROV1 ovarian and in the test with MDA-MB-231 breast was greater than 100 µM in each case. Further, the TGI in the test on U251 CNS was greater than 100 µM.

Regarding `CCCCCCCCCCCCc1ccsc1-c1ccc(-c2ccc(-c3sccc3CCCCCCCCCCCC)s2)s1`, the TGI with NCI-H23 lung, in the test with MDA-MB-435, with SK-MEL-5 melanoma, in the test on SNB-19 CNS, in the test on SW-620 colon and with HCC-2998 colon was greater than 100 µM in each case. Also, the TGI with SN12C renal, with M14 melanoma, in the test with OVCAR-3 ovarian, in the test on NCI-H522 lung, in the test on HS 578T breast and with BT-549 breast was greater than 100 µM throughout. Moreover, the TGI in the test on HCT-116 colon, with NCI-H460 lung, in the test with SR leukemia, with IGROV1 ovarian, with MDA-MB-231 breast and with UACC-257 melanoma was greater than 100 µM in each case. In the test with U251 CNS, this compound had a TGI greater than 100 µM.

Regarding `COCCCNc1c2ccccc2nc2ccccc12`, the TGI in the test on NCI-H23 lung stood at 10.3 µM; in the test on MDA-MB-435, 12.7 µM; in the test with SK-MEL-5 melanoma, 4.51 µM; in the test with OVCAR-4 ovarian it was 20.6 µM; in the test on SNB-19 CNS, 6.41 µM; in the test on SW-620 colon, 12.6 µM. The TGI with HCC-2998 colon came out at 4.58 µM; in the test with SN12C renal it was 15.1 µM; with M14 melanoma it was 3.89 µM; in the test on OVCAR-3 ovarian, 7.55 µM; in the test with NCI-H522 lung it was 6.8 µM; in the test with HS 578T breast it was 9.32 µM. The TGI was determined as 53.2 µM in the test on BT-549 breast; 15.7 µM in the test with HCT-116 colon; 3.55 µM in the test on NCI-H460 lung; 12.1 µM with SR leukemia; 22.9 µM in the test with IGROV1 ovarian; 12.5 µM in the test on MDA-MB-231 breast. Further, in the test on UACC-257 melanoma, the TGI was 7.03 µM.

For `COc1ccc(C=O)cc1OS(=O)(=O)C(F)(F)C(F)(F)C(F)(F)C(F)(F)F`, the TGI was greater than 100 µM in the test with NCI-H23 lung; 48.9 µM in the test on MDA-MB-435; 30.8 µM in the test with SK-MEL-5 melanoma; greater than 100 µM in the test on OVCAR-4 ovarian; greater than 100 µM in the test on SNB-19 CNS; greater than 87.4 µM in the test with SW-620 colon. The TGI in the test with SN12C renal was 97.5 µM; with M14 melanoma, greater than 80.5 µM; in the test on OVCAR-3 ovarian, greater than 69.2 µM; in the test on NCI-H522 lung it was greater than 60.1 µM; in the test with HS 578T breast, 68.8 µM; in the test on BT-549 breast, greater than 100 µM. Moreover, the TGI is greater than 70.4 µM with HCT-116 colon; greater than 93.4 µM with NCI-H460 lung; greater than 24.4 µM in the test with SR leukemia; greater than 67.5 µM with IGROV1 ovarian; greater than 70.3 µM with MDA-MB-231 breast; greater than 100 µM in the test on UACC-257 melanoma. This compound displayed a TGI in the test with U251 CNS of 66.5 µM.
